# Test results taken from ChEMBL document CHEMBL1201862, “PubChem BioAssay data set” (2004).
# The source made the active and inactive calls.
# What was measured:
# [1] = molecular target: FAD-linked sulfhydryl oxidase ALR (Homo sapiens, UniProt P55789); assay: ALR-catalysed DTT oxidation blockers – biochemical, H2O2 detection, luminescence, cherry-pick, dose response (AID 493248)
# Cytochrome P450 2C9 = Cytochrome P450 2C9 (Homo sapiens, UniProt P11712)
# [2] = NIH-3T3 fibroblast cytotoxicity, dose response, cytotoxicity control, cell-based, fluorescence, Alamar Blue, secondary assay (AID 2327); type: functional;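 further: NIH-3T3 mouse fibroblasts cultured with fluconazole at 8 µg/mL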
# [3] = fluconazole-exposed Candida albicans growth modulators – fluorescence, retest, confirmation (AID 2467); type: functional, cell-based
# Fatty acid synthase [4] = molecular target: T1, Fatty acid synthase (Homo sapiens, UniProt P49327); assay: inhibition of human FAS-TE enzyme activity – biochemical, endpoint fluorescence intensity, uHTS hits, dose response (AID 624327); type: functional;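 further: fluorescence from hydrolysis of an O-methyl fluorescein acyl ester substrate by the enzyme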
# T1 sequence (P49327 whole entry): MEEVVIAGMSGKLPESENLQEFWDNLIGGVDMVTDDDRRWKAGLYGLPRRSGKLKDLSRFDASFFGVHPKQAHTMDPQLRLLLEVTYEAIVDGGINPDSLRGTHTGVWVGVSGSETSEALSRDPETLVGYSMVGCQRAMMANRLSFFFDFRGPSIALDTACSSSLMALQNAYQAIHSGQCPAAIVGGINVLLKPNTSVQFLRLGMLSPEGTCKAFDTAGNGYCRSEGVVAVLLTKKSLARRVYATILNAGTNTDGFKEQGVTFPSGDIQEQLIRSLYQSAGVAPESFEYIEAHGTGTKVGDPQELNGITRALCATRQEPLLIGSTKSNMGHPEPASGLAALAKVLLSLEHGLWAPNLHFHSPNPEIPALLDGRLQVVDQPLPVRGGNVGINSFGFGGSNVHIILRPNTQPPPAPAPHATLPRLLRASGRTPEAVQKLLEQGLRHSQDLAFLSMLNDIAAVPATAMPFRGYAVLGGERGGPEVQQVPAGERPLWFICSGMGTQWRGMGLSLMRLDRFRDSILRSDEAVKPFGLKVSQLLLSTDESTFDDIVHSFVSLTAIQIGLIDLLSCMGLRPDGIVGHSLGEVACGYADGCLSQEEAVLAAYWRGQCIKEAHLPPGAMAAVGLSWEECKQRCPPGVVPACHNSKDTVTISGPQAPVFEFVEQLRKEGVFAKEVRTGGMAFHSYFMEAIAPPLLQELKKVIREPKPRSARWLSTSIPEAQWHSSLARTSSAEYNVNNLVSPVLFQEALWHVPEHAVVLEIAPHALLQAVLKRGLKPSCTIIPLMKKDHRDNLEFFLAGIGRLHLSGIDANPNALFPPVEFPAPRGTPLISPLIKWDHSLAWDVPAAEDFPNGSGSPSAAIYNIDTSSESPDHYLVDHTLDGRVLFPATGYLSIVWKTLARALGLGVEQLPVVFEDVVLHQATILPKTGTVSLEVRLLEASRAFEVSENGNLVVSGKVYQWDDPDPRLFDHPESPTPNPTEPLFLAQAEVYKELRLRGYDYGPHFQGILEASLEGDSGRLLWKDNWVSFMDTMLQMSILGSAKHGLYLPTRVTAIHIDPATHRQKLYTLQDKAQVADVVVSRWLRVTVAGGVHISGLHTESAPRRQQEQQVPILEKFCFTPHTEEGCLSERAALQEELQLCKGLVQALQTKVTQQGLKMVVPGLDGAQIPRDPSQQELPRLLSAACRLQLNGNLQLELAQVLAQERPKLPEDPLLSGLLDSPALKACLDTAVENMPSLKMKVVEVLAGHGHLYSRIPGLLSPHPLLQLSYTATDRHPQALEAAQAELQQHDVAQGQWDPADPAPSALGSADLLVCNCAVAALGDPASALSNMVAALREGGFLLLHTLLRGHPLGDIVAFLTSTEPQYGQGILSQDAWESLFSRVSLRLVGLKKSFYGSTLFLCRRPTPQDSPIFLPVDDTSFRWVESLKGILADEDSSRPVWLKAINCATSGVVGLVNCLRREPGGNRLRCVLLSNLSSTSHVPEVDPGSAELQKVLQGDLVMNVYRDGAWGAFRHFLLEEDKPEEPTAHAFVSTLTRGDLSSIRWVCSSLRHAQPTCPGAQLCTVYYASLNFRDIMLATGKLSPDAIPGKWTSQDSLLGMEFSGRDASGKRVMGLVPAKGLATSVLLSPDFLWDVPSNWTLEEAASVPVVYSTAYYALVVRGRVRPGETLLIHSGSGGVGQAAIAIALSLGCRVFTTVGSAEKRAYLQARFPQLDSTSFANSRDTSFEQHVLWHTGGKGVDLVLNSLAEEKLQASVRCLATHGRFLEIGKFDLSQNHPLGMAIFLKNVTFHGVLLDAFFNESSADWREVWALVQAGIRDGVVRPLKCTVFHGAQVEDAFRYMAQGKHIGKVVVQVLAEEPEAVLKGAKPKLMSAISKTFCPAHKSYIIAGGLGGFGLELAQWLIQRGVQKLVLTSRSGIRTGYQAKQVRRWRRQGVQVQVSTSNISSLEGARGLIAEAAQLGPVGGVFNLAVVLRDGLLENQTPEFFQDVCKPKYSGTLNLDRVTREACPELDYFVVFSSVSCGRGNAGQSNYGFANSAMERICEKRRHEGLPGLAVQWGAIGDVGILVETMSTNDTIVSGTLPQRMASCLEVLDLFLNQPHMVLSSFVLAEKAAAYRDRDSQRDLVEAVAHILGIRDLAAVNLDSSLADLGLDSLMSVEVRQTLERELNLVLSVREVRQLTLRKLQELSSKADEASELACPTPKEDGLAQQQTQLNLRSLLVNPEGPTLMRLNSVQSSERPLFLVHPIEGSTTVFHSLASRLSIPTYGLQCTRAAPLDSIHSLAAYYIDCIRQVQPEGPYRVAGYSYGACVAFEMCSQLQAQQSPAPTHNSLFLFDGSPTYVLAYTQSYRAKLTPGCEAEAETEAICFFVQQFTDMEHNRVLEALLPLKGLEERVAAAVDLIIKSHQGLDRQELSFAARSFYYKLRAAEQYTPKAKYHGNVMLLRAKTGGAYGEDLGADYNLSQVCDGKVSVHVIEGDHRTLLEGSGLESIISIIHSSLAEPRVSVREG
# Fatty acid synthase [5] = molecular target: T1, Fatty acid synthase; assay: inhibition of human FAS-TE enzyme activity – biochemical, kinetic fluorescence intensity, dose response (AID 624326); type: functional;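 further: rate of fluorescence rise from hydrolysis of a fluorogenic O-methyl fluorescein ester substrate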
# [6] = Luminescence Cell-Based Dose Confirmation HTS to Identify Activators of 5'UTR Stem-Loop Driven Alpha-Synuclein mRNA Translation in H4 Neuroglioblastoma Cells. [Related pubchem assays: 1829 (Project Summary), 1814 (Primary HTS)]; type: functional
# H4 = assay: Luminescence Cell-Based Dose Response HTS to Identify Activators of 5'UTR Stem-Loop Driven Prion Protein mRNA Translation in H4 Neuroglioblastoma Cells. [Related pubchem assays: 1829 (Project Summary), 1814 (Primary HTS)]; type: functional; settings: Homo sapiens
# cells [7] = type: functional, cell-based
# [8] = Luminescence Cell-Based Dose Response HTS to Identify Activators of Luciferase Translation or Activity in H4 […] Cells. [Related pubchem assays: 1829 (Project Summary), 1814 (Primary HTS)]; type: functional
# cells [9] = type: functional, cell-based; remark: listed apart in the source
# [10] = molecular target: T2, Calpain-2 catalytic subunit (Sus scrofa, UniProt P43367); assay: m-calpain protease blockers, concentration series – biochemical, fluorogenic peptide substrate, dose response (AID 1420); type: functional
# T2 sequence (P43367 whole entry): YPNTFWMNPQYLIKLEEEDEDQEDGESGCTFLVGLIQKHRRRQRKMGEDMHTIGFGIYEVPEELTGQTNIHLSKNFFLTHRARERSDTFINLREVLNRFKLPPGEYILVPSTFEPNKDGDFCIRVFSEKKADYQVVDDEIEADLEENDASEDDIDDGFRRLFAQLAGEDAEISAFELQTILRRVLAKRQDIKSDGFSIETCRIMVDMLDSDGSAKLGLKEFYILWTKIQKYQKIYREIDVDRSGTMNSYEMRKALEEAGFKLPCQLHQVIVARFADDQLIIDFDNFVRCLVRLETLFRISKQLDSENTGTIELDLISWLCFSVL
# Genome polyprotein = Genome polyprotein (dengue virus type 2, UniProt P29990); assay: flavivirus cap methylation enzyme inhibition – biochemical, confirmation dose response, primary screen (AID 588689); type: functional
# Cytochrome P450 1A2 = molecular target: T3, Cytochrome P450 1A2 (Homo sapiens, UniProt P05177);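 further: PubChem cytochrome P450 panel assay, CYP1A2 panel member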
# T3 sequence (P05177 whole entry): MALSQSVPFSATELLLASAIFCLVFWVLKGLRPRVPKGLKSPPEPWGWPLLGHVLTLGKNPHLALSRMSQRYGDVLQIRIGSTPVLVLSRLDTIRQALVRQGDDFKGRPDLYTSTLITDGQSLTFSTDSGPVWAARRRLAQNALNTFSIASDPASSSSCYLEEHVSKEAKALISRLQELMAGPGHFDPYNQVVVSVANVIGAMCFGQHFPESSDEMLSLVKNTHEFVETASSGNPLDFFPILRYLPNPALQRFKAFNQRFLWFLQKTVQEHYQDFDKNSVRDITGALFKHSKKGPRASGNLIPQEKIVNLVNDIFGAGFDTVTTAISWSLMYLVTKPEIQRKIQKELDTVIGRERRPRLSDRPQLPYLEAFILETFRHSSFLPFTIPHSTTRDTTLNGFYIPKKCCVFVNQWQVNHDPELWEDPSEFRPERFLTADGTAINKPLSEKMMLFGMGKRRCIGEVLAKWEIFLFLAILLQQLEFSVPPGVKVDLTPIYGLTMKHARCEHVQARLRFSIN
# Cytochrome P450 2C19 = Cytochrome P450 2C19 (Homo sapiens, UniProt P33261); assay: Cytochrome panel assay with activity outcomes. Panel member name: p450-cyp2c19 Compounds with AC50 equal or less than 10 uM are considered active; type: functional; settings: read-out: AC50
# Sequence of Cytochrome P450 2C19 (P33261 whole entry): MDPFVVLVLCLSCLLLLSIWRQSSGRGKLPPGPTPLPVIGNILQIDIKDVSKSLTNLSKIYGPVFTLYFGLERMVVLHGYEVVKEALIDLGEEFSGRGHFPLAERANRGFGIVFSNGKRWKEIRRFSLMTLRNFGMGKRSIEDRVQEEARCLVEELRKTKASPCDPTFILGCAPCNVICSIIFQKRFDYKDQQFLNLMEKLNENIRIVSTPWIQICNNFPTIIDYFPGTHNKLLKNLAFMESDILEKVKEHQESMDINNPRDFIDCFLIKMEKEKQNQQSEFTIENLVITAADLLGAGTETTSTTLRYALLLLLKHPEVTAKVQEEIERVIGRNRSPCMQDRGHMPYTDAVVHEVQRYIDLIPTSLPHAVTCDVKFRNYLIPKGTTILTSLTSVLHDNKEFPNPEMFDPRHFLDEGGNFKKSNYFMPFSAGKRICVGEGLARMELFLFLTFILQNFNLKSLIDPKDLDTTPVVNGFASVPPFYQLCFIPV
# [11] = Trypanosoma cruzi growth suppression in host cells – NIH3T3 host cells, beta-gal luminescence, confirmation (AID 2044); type: functional, cell-based;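 further: intracellular parasites grown in NIH/3T3 mouse fibroblasts as host cells; luminescent beta-galactosidase reporter signal from transgenic T. cruzi replicating inside host cells; inhibitors lower the luminescence signal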
# [12] = NIH3T3 cell viability loss – ATP luminescence, mouse fibroblasts, counter-screen, dose response (AID 2010); type: functional, cell-based;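 further: cells exposed to compound for about 90 hours before reading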
# Large T antigen = Large T antigen (Simian virus 40, UniProt P03070); type: functional, Betapolyomavirus macacae;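 further: Confirmatory-stage PubChem screen for compounds that inhibit SV40 T antigen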
# Sequence of Large T antigen (P03070 whole entry): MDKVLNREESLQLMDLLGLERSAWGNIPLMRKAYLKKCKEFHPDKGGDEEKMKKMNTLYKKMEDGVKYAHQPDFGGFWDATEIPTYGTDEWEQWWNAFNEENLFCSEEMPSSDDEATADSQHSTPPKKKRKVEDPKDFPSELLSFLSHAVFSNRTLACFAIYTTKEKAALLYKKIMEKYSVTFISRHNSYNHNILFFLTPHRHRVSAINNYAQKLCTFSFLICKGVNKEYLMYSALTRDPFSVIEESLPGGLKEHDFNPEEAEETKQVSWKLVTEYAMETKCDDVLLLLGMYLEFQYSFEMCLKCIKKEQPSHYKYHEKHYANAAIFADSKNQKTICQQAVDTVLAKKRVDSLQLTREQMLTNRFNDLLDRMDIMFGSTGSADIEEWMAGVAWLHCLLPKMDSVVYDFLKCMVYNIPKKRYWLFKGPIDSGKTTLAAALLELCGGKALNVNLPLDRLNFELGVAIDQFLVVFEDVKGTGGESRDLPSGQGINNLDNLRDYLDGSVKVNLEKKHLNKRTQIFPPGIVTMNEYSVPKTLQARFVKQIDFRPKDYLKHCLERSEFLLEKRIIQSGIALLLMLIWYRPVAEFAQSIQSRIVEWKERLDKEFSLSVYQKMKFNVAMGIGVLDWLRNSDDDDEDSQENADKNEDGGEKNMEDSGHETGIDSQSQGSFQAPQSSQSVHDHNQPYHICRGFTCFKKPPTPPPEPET
# Cytochrome P450 3A4 = Cytochrome P450 3A4 (Homo sapiens, UniProt P08684);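 further: CYP3A4 tested as one member of a cytochrome P450 panel screen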
# Sequence of Cytochrome P450 3A4 (P08684 whole entry): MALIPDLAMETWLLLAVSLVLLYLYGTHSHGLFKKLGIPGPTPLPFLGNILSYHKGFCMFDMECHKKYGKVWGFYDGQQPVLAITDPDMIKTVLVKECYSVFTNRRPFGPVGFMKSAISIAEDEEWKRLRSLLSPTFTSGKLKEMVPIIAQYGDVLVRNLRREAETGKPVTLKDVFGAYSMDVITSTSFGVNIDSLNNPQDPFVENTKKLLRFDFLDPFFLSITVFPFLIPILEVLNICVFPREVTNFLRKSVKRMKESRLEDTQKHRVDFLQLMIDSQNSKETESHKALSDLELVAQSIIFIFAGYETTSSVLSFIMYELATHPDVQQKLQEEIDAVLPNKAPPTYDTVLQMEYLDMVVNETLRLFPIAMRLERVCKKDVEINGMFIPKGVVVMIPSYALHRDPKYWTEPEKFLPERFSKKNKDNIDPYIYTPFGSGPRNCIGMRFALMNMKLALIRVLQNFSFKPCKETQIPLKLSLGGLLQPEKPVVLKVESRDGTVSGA
# [13] = viability of uninfected HEp-2 cells – cell-based, HTS, cytotoxicity control for RSV inhibitor project, dose response (AID 2410); type: functional; settings: human respiratory syncytial virus
# [14] = molecular target: T4, Rac GTPase-activating protein 1 (Homo sapiens, UniProt Q9H0H5); assay: blockers of MgcRacGAP-driven Rac1 GTP hydrolysis – biochemical, ADP Hunter fluorescence, primary and confirmatory, confirmation (AID 624330); type: functional
# T4 sequence (Q9H0H5 whole entry): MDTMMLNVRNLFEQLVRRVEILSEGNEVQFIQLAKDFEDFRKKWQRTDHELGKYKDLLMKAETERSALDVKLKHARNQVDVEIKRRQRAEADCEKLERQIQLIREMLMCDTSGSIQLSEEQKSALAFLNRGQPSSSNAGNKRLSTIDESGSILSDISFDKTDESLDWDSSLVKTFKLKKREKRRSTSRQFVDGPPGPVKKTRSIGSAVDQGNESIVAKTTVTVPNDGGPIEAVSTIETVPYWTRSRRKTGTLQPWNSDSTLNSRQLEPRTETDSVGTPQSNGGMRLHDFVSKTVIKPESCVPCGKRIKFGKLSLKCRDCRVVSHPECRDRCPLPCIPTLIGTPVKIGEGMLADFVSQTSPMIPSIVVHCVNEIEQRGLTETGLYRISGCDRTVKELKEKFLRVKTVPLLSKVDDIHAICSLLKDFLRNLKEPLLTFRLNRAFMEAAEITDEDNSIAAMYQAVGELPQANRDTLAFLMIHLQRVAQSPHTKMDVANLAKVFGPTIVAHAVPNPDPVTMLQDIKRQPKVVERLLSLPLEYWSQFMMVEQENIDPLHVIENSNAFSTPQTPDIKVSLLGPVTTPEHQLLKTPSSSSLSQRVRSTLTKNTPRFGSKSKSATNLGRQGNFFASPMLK
# INS1 = assay: INS-1E survival protection against cytokine death – cell-based, luminescence, retest, dose response (AID 449756); type: functional; settings: Rattus norvegicus;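 further: cell death triggered by IL-1 beta plus TNF-alpha plus IFN-gamma mixture; protective hits raise ATP signal compared with cytokine alone wells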
# [15] = THP-1 cell cytotoxicity, dose response, cytotoxicity control for non-replicating M. tuberculosis project (AID 489025); type: functional
# Sequence of FAD-linked sulfhydryl oxidase ALR (P55789 whole entry): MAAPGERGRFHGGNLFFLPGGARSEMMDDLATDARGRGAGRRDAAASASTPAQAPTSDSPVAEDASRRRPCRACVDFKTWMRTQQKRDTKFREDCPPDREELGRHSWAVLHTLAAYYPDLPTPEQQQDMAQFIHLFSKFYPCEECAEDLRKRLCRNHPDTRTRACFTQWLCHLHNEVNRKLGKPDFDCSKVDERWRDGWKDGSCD
# Sequence of Cytochrome P450 2C9 (P11712 whole entry): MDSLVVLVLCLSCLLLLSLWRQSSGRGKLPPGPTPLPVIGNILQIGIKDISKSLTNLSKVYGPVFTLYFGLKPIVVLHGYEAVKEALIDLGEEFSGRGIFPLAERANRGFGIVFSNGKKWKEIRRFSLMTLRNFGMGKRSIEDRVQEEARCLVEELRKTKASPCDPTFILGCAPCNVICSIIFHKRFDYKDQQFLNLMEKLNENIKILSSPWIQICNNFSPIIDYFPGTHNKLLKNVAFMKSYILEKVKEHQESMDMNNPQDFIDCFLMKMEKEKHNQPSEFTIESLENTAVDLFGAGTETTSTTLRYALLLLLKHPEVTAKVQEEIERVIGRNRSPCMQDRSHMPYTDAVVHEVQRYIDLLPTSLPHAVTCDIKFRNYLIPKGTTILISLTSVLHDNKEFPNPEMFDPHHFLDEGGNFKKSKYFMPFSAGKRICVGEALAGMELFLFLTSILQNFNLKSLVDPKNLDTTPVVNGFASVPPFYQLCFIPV
compound,measurement,setting,value
COc1cccc(-c2nnc(S)n2Cc2ccco2)c1OC,AC50,[1],3.65 µM (active)
COc1ccccc1CNC(=O)CCN1C(=O)COc2ccc(C)cc21,AC50,Cytochrome P450 2C9,inconclusive
COCCN(C(=O)CSc1nnc(-c2cccc(C)c2)n1C)c1c(N)n(Cc2ccccc2)c(=O)[nH]c1=O,EC50,[2],> 160 µM (inactive)
same,EC50,[3],> 38 µM (not active)
Cc1ccc(C(=O)N/C(=C\c2cccc([N+](=O)[O-])c2)C(=O)Nc2cccc(C(=O)O)c2)cc1,IC50,Fatty acid synthase [4],15.1 µM (active)
same,IC50,Fatty acid synthase [5],8.2 µM (active)
CCCCNC(=O)c1cc(-c2ccc(F)cc2)on1,EC50,[6],11.9 µM (active)
same,EC50,H4,13.1 µM (active)
same,EC50,cells [7],8.85 µM (active)
same,EC50,[8],24.3 µM (active)
same,EC50,cells [9],45 µM (active)
COc1cccc(-n2c(SCC(=O)OC(C)C)nnc2-c2cccnc2)c1,IC50,[10],> 50 µM (not active)
C=C(C)CC1Nc2ccccc2NC1CC(=C)C (stereo not given),AC50,[1],5.56 µM (active)
O=[N+]([O-])c1ccc(NCc2ccccc2)nc1,IC50,[10],34.1 µM (not active)
CCC(C(=O)O)N1C(=O)/C(=C/C(C)=C/c2ccccc2)SC1=S (stereo not given),IC50,Genome polyprotein,37.8 µM (active)
Cc1ccc(C(=O)Nc2ccc(N3CCOCC3)nc2)cc1,AC50,Cytochrome P450 1A2,17.8 µM (inconclusive)
same,AC50,Cytochrome P450 2C9,inconclusive
same,AC50,Cytochrome P450 2C19,2.82 µM (inconclusive)
COC(=O)c1ccc(COc2cc([N+](=O)[O-])cc3cccnc23)o1,IC50,Fatty acid synthase [4],13.3 µM (active)
same,IC50,Fatty acid synthase [5],11.6 µM (active)
S=C(NCc1ccc(Cl)cc1)NC1CCN(Cc2ccccc2)CC1,EC50,[11],2.86 µM (active)
same,EC50,[12],> 30 µM (not active)
same,IC50,[10],18.6 µM (not active)
Oc1nc2cc(NCc3ccc(F)cc3)ccc2[nH]1,IC50,Large T antigen,13.2 µM (active)
FC(F)(F)c1cccc(N2CCN(CC3CC4C=CC3C4)CC2)c1 (stereo not given),AC50,Cytochrome P450 1A2,11.2 µM (inconclusive)
same,AC50,Cytochrome P450 3A4,39.8 µM (inconclusive)
same,AC50,Cytochrome P450 2C9,inconclusive
COc1ccc(NC(=O)c2[nH]cnc2C(=O)N[C@H](C)c2ccccc2)cc1,IC50,Fatty acid synthase [4],10.9 µM (active)
same,IC50,Fatty acid synthase [5],11.5 µM (active)
Cc1ccc(S(=O)(=O)Nc2ccccc2C=O)cc1,AC50,Cytochrome P450 2C9,inconclusive
Cn1c(N)c(C(=O)COC(=O)c2ncc(Cl)c(Cl)c2Cl)c(=O)n(C)c1=O,IC50,[10],9.79 µM (active)
CC1=NOC(=O)/C1=C\c1ccc(-c2ccc(Br)cc2C(=O)O)o1,IC50,Genome polyprotein,20.1 µM (active)
CC(C)(C)c1ccc(C(=O)Nc2cccc([N+](=O)[O-])c2)cc1,CC50,[13],5.38 µM (active)
same,IC50,[10],2.13 µM (not active)
O=C(CNCc1ccco1)Nc1ccc(N2CCCCCC2)cc1,IC50,[14],84.4 µM (active)
same,AC50,[1],0.224 µM (active)
CC1(C)C2CCC1(C)C(OCC[N+](C)(C)CC(=O)OC1CCCCC1)C2 (stereo not given),EC50,[2],> 150 µM (inactive)
same,EC50,[3],0.743 µM (active)
COc1ccccc1NC(=O)c1sc2ncn(Cc3ccccc3C)c(=O)c2c1C,AC50,Cytochrome P450 2C9,inconclusive
Cc1cc(C)nc(Nc2n[nH]c(COc3cccc4ccccc34)n2)n1,AC50,Cytochrome P450 3A4,2.24 µM (inconclusive)
same,AC50,Cytochrome P450 2C9,inconclusive
COc1cccc(OC)c1C(=O)Nc1ccc(N2CCCCC2)cc1,AC50,[1],7.85 µM (active)
Nc1cc(S(=O)(=O)N2CCCCC2)ccc1Oc1ccccc1,IC50,[10],20.8 µM (not active)
Cc1ccc(Nc2c3c(nc4ccccc24)CCC3)cc1,AC50,INS1,8.95 µM (active)
same,EC50,cells [7],> 350 µM (not active)
same,EC50,cells [9],> 350 µM (not active)
CCCCN1C(=O)NC(=O)/C(=C(\C)NCCc2ccccc2)C1=O,IC50,[10],17.7 µM (not active)
CCCn1c(CCC(=O)O)ccc1-c1cccs1,AC50,[1],8.5 µM (active)
Nc1ccc2oc3ccc(N)cc3c(=O)c2c1,AC50,[1],1.07 µM (active)
C=CCOc1ccc(CNc2ccc3[nH]c(O)nc3c2)cc1OCC,IC50,Large T antigen,20.5 µM (active)
O=C1CC(SC(=NCc2ccc3c(c2)OCO3)Nc2ccccc2)C(=O)N1c1ccccc1 (stereo not given),IC50,[10],> 50 µM (not active)
CC(C)NC(=O)c1ccc(-c2cccc(C(F)(F)F)c2)o1,AC50,Cytochrome P450 2C9,inconclusive
Cc1ccc(-c2ccc(/C=N/NC(=O)CN3CCCC3)o2)cc1Cl,CC50,[15],37.8 µM (active)
COc1cc(/C=N/NC(=O)c2ccncc2)ccc1O,IC50,Large T antigen,6.8 µM (active)
O=C(COc1ccccc1[N+](=O)[O-])N/N=C/c1ccc(O)cc1,IC50,[14],80.8 µM (active)
same,IC50,Large T antigen,9.26 µM (active)
O/N=C(\c1ccc2c(c1)OCCO2)C1CCCCC1,IC50,[10],25.1 µM (not active)
O=C(N/N=C\c1ccccc1OCc1ccccc1)c1ccco1,CC50,[15],39.6 µM (active)
Sc1nncn1/N=C/c1cccc(Oc2ccccc2)c1,AC50,[1],2.09 µM (active)
N#C/C(=C\c1ccc(O)c(O)c1)C(=O)NCc1ccccc1,AC50,Cytochrome P450 2C9,inconclusive
same,IC50,Large T antigen,14.6 µM (active)
same,AC50,Cytochrome P450 2C19,25.1 µM (inconclusive)
O=c1c(-c2ccc(O)cc2)coc2cc(O[C@@H]3O[C@H](CO)[C@@H](O)[C@H](O)[C@H]3O)ccc12 [DAIDZIN],IC50,Large T antigen,> 100 µM (active)
C1=Cc2ccccc2Nc2ccccc21 [IMINOSTILBENE],IC50,[14],14.9 µM (active)
same,IC50,Large T antigen,14.3 µM (active)
